Columns and labels:
[1] = system: PBMC TNF-α production; assay: Inhibition of TNF-α production by LPS-stimulated human PBMC (1-day culture); format: cell-based; details: 24 h
Procedure: (§1) Metabolites and hydrolysis products of pomalidomide were tested for pharmacological activity in the following three assay systems: (1) inhibition of MM cell proliferation, (2) enhancement of primary human T cell IL-2 production and (3) inhibition of TNF-α production by lipopolysaccharide (LPS)-stimulated human peripheral blood mononuclear cells (PBMC). For all three assay types, compounds were dissolved in 100 % dimethyl sulfoxide (DMSO) and diluted into complete cell culture medium, consisting of Roswell Park Memorial Institute (RPMI)-1640 plus penicillin, streptomycin and L-glutamine (Mediatech, Manassas, VA). The MM cell proliferation cell culture medium contained 10 % fetal bovine serum, while the primary human cell cultures contained 10 % human AB serum (Invitrogen, Brown Deer, WI). The final DMSO concentration in the cell culture media was 0.25 %.
(§2) The human MM cell line OPM-2 was obtained from DSMZ (Braunschweig, Germany), and human MM cell lines U266 B1 and NCI-H929 were obtained from ATCC (Manassas, VA). Inhibition of MM cell proliferation was assessed by the [^3H]-thymidine incorporation assay in a 3-day culture in the presence of compounds in complete medium, as previously described. Primary human T cells were isolated from PBMC by negative selection using the RosetteSep T Cell Enrichment Cocktail (STEMCELL Technologies, Tukwila, WA) according to the manufacturer’s procedures. Costimulation of T cell IL-2 production was measured in a 2-day culture of primary human T cells isolated from healthy donors stimulated with anti-CD3 antibody in the presence of compounds, as previously described. Inhibition of TNF-α production by LPS-stimulated human PBMC was measured in a 1-day culture in the presence of compound, as previously described.

[2] = molecular target: T1, CYP3A4 (Homo sapiens, UniProt P08684); assay: In vitro CYP phenotyping (M17 formation from [14C]pomalidomide); format: in vitro ADME
T1 construct: purchased Cypex Ltd (Scotland, UK)
Procedure: (§3) The CYP enzymes responsible for the formation of the hydroxy pomalidomide metabolites were investigated using 10 recombinant human CYP (rCYP) enzymes (CYP1A2, CYP2A6, CYP2B6, CYP2C8, CYP2C9, CYP2C19, CYP2D6, CYP2E1, CYP3A4 and CYP3A5) at 100 pmol/mL. Incubations were prepared using [^14C]pomalidomide (1 μM) in 0.1 M potassium phosphate buffer (pH 7.4) with 4 mM MgCl2, pre-incubated for 5 min at 37 °C. Reactions were initiated by the addition of 1 mM NADPH and continued for 30 or 60 min. Reactions were quenched with two volumes of ice-cold 0.1 % formic acid in acetonitrile containing [^13C5]pomalidomide as internal standard. The samples were mixed and centrifuged, and a subsample of the supernatant evaporated to dryness. The resulting pellet was reconstituted in 0.1 % formic acid in water and acetonitrile (4:1, v/v) and analyzed using HPLC with radiochromatography and/or LC–MS/MS. The rate of formation of the notable human metabolite M17 was calculated and scaled to human in vivo situation using relative abundance method.

[3] = molecular target: T2, CYP2C19 (Homo sapiens, UniProt P33261); assay: as above; format: in vitro ADME
T2 construct: purchased Cypex Ltd (Scotland, UK)
Procedure: as §3

[4] = molecular target: T3, CYP1A2 (Homo sapiens, UniProt P05177); assay: as above; format: in vitro ADME
T3 construct: purchased Cypex Ltd (Scotland, UK)
T3 sequence (P05177 1-516): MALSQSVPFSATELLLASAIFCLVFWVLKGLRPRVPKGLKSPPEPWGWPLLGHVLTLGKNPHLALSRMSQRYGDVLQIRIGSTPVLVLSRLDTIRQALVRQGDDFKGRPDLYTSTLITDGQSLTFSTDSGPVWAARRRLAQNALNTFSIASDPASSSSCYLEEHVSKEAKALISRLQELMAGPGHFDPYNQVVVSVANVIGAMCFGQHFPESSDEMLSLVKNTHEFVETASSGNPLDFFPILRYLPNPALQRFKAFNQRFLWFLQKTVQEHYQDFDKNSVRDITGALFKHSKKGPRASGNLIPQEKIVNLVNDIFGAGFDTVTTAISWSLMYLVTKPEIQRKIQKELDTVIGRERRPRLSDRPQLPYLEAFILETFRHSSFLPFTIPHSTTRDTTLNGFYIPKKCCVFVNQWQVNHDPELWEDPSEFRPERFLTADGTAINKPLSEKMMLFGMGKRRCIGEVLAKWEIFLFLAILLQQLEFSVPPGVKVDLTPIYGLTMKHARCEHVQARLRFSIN
Procedure: as §3

[5] = molecular target: T4, CYP2D6 (Homo sapiens, UniProt P10635); assay: as above; format: in vitro ADME
T4 construct: purchased Cypex Ltd (Scotland, UK)
Procedure: as §3

[6] = system: T cell IL-2 production; assay: Enhancement of primary human T cell IL-2 production (anti-CD3 stimulated, 2-day culture); format: cell-based; details: 48 h, anti-CD3 stimulated primary human T cells
Procedure: as §1, §2

T4 sequence (P10635 whole entry): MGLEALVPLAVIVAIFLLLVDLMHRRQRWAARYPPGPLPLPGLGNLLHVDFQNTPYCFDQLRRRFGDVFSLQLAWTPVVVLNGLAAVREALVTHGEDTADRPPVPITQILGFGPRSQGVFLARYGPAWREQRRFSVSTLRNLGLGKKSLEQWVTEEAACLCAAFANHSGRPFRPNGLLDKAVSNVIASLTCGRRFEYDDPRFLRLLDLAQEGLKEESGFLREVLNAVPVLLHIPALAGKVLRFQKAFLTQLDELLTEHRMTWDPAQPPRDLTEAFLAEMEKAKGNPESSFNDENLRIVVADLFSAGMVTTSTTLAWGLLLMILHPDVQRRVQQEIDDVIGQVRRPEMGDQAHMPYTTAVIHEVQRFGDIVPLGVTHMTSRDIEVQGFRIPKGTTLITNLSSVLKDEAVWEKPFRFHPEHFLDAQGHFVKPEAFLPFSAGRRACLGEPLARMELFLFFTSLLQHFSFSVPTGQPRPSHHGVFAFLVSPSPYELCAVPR
T2 sequence (P33261 whole entry): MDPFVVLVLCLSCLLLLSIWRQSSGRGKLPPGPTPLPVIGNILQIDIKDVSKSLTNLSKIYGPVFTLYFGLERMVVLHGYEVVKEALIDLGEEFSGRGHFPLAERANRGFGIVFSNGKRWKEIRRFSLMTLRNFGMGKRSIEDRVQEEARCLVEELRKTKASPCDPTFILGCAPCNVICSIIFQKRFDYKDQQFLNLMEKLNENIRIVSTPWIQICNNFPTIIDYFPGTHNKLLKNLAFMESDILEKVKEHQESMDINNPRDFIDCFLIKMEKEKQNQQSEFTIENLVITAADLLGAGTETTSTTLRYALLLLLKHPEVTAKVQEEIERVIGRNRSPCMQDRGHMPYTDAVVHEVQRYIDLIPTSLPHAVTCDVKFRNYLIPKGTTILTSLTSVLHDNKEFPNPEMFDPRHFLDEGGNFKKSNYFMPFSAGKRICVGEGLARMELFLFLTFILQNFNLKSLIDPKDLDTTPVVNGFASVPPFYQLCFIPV
T1 sequence (P08684 whole entry): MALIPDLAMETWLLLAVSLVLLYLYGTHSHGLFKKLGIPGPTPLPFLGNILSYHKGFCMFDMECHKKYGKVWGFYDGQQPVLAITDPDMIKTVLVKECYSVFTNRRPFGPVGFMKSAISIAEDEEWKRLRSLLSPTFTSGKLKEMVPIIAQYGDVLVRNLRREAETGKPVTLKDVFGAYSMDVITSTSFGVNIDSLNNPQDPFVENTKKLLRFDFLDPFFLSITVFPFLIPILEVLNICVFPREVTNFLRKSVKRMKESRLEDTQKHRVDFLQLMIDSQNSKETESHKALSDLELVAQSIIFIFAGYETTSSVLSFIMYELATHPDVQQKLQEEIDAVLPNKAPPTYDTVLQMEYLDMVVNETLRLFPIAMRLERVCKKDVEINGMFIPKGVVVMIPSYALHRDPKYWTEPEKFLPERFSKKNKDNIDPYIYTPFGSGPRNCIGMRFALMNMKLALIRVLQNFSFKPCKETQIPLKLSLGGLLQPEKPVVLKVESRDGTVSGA

Structure (SMILES)	IC50 [1]	relative contribution of isozyme to the hepatic metabolism of pomalidomide ([2]; CYP3A4, scaled by relative abundance in human liver)	relative contribution of isozyme to the hepatic metabolism of pomalidomide ([3]; CYP2C19, scaled by relative abundance in human liver)	relative contribution of isozyme to the hepatic metabolism of pomalidomide ([4]; CYP1A2, scaled by relative abundance in human liver)	relative contribution of isozyme to the hepatic metabolism of pomalidomide ([5]; CYP2D6, scaled by relative abundance in human liver)	EC50 [6]	rate of M17 formation ([2]; rCYP3A4, [14C]pomalidomide 1 μM, 1-h incubation, based on peak area ratios, estimated)	rate of M17 formation ([3]; rCYP2C19, [14C]pomalidomide 1 μM, 1-h incubation, based on peak area ratios, estimated)	rate of M17 formation ([4]; rCYP1A2, [14C]pomalidomide 1 μM, 1-h incubation, based on peak area ratios, estimated)	rate of M17 formation ([5]; rCYP2D6, [14C]pomalidomide 1 μM, 1-h incubation, based on peak area ratios, estimated)
Nc1cccc2c1C(=O)N(C1CCC(=O)NC1=O)C2=O (racemic) [Pomalidomide, (RS)-4-amino-2-(2,6-dioxo-piperidin-3-yl)-isoindoline-1,3-dione]	3.1 nM	30%	11%	54%	4%	22 nM				
Nc1c(O)ccc2c1C(=O)N(C1CCC(=O)NC1=O)C2=O (stereo not drawn) [Metabolite M17, 5-hydroxy pomalidomide]	> 10000 nM					> 10000 nM	0.0008 pmol/min/pmol P450	0.0024 pmol/min/pmol P450	0.0027 pmol/min/pmol P450	0.0011 pmol/min/pmol P450

Reference: PMC3556473, “Absorption, metabolism and excretion of [^14C]pomalidomide in humans following oral administration” (Cancer Chemotherapy and Pharmacology, 2012)
